Measurements from patent US6624142B2, “Trimethyl lock based tetrapartate prodrugs” (Enzon, Inc., priority 1997, dated 2003).

Test system: s.c. Human Mammary Tumor (MX-1)
Experiment: Efficacy against s.c. MX-1 human mammary tumor in nude mice
Type: in vivo
Conditions: 30 mg/kg q7d × 3, iv
Experimental: Following at least one week of acclimation, tumors were established by injecting 1×10^6 (100 μl) harvested MX-1 mammary tumor cells in a single subcutaneous site, on the left axillary flank region of nude mice. The tumor injection site was observed twice weekly and measured once palpable. The tumor volume for each mouse was determined by measuring two dimensions with calipers and calculated using the formula: tumor volume ((length×width^2)/2). When tumors reached the average volume of approximately 65 mm^3, the mice were divided into their experimental groups, which consists of vehicles (20 m M Sodium PO4 in 0.6% NaCl) controls, Leu-Doxorubicin, compound 3 of Example 1a, compound 5 of Example 2a. The mice were sorted to evenly distribute tumor size, grouped into 6 mice/cage, and ear punched for permanent identification. Drugs were dosed intravenously via the tail vein once per week for three weeks (Qd7×3). Mouse weight and tumor sizes were measured at the beginning of study and twice weekly through week 5.
The overall growth of tumors was calculated as the mean tumor volume at one week following the end of the treatment. A percent treatment over control (T/C) value was also calculated when the control group's median tumor size reached approximately 800-1100 mm^3 and again at one week following treatment. The T/C value in percent is a non-quantitative indication of anti-tumor effectiveness.

COc1cccc2c1C(=O)c1c(O)c3c(c(O)c1C2=O)C[C@@](O)(C(=O)CO)C[C@@H]3O[C@H]1C[C@H](NC(=O)[C@@H](N)CC(C)C)[C@H](O)[C@H](C)O1 [Leu-Dox, Leucine-Doxorubicin, reference compound]
Tumor Vol. Mean ± SEM (Day 25-28) (Day 25-28, mean baseline tumor volume 65 mm^3): 860 ± 163 mm^3 | T/C (%) 1000 mm^3 (median tumor volume, treatment vs control, when control median reached approximately 1000 mm^3): 56.5% | % Change Mean ± SEM (Day 25-28) (tumor volume change, Day 25-28): 1373 ± 487%
